# Experiments:
# Assay type in all cases: in vivo, rat
# [1] = test system: Dahl salt-sensitive (Dahl/SS) male rats; assay: Histochemistry of left ventricle collagen deposition (Masson's trichrome) and collagen cross-linking (Picrosirius Red); conditions: HT Dahl/SS rats, 50 or 100 ng/kg/day s.c. (pooled), not significant, FIG. 2
# Experimental: (§1) A total of 29 adult Dahl salt-sensitive (Dahl/SS) male rats with an initial weight of 150 to 200 g were included in the study. Rats were purchased from Charles River Laboratories (USA) and housed in a room with a 12/12-hour light cycle, a temperature of 21° C., and a humidity of 55%. Rats were maintained on a normal salt diet up to seven weeks of age. Twenty-two Dahl/SS were then randomly switched to a high salt diet for 6 weeks to induce hypertension, whilst 7 rats were kept normotensive (NT) on normal salt diet. Drinking water and food was provided ad libitum.
# After 2 weeks of high salt diet, 15 hypertensive (HT) rats were started on treatment with proANP31-67. […]
# Hearts were excised, rinsed in PBS, quickly blotted on gauze, and then fixed in 10% formalin for a minimum of 24 hr. […] Stained sections were scanned (20× magnification) with AxioScan Z1 (Carl Zeiss), to obtain whole cross-sections for collagen quantification. Total fibrosis area (%) and perivascular fibrosis (ratio of the area of fibrosis surrounding the vessel wall to the lumen area) were quantified using ZEN2 blue edition (Zeiss, Jena, Germany). […] The degree of cross-linked collagen was calculated as the ratio between cross-linked collagen and total collagen. All histological quantifications were independently performed by three trained researchers blinded to rat groups.
# [2] = test system: Dahl salt-sensitive (Dahl/SS) male rats; assay: Autopsy: body weight, heart weight and heart weight to body weight ratio in hypertensive Dahl/SS rats; conditions: for HW (heart weight) / HW/BW: HT Dahl/SS rats on high salt diet, at 6 weeks, mean ± SEM
# Experimental: as §1
# (§2) After 2 weeks of high salt diet, 15 hypertensive (HT) rats were started on treatment with proANP31-67. Rats treated with proANP31-67 received one of two dosages: 50 ng/kg/day (n=8) or 100 ng/kg/day (n=7). A total of 14 rats received only vehicle: control rats on a normal salt diet (n=7); and HT rats on a high salt diet (n=7). Rats were randomly assigned to the 3 groups (i.e. control normal salt; high salt untreated; high salt plus treatment).
# (§3) Drug or vehicle was delivered via Alzet osmotic mini-pumps (Model 2004; mean pumping rate […], mean fill volume […]) implanted subcutaneously (as instructed by the manufacturer) for 28 days. Animals were treated with buprenorphine (0.05 mg/kg s.c.) as analgesic 30 minutes before and up to 1 day following implantation of pumps.
# (§4) Experiments were performed as described above in Example 1, using a group of 8 Dahl/SS rats which, at 7 weeks of age, were switched to a high salt diet as described above. After 2 weeks of high salt diet, this group was started on proANP31-67 treatment. The rats were administered proANP31-67 at a renal sub-therapeutic dosage of 25 ng/kg/day.
# [3] = test system: Dahl salt-sensitive (Dahl/SS) male rats; assay: Transthoracic echocardiography of cardiac structure and function in hypertensive Dahl/SS rats; conditions: for E/A (ratio E wave to A wave) / EF (ejection fraction) / FS (fractional shortening) / IVS; d (inter-ventricular septum, diastole) / IVS; s (inter-ventricular septum, systole) / LA (left atrium diameter) / LV Mass (left ventricular mass) / LV Vol; d (left ventricular volume, diastole) / LV Vol; s (left ventricular volume, systole) / LVPW; d (left ventricular posterior wall, diastole) / LVPW; s (left ventricular posterior wall, systole) / RWT (relative wall thickness): HT Dahl/SS rats on high salt diet, at 6 weeks, mean ± SEM
# Experimental: as §1, §2, §3
# Cardiac function was assessed by transthoracic echocardiography using a VEVO 2100 high resolution in vivo imaging system from VisualSonics (Canada). Briefly, animals were maintained under anesthesia (1.5-2% isoflurane mixed with oxygen) on a pre-warmed ECG transducer pad with body temperature and ECG monitored. Measurements were made with an MS250 transducer, frequency set at 24 MHz. M-mode in the parasternal long axis view was performed to assess the function and dimension of the left ventricle and left atrium. LVEF was calculated as 100×((LV Vol;d−LV Vol;s)/LV Vol;d). LV mass was estimated by the formula: 1.053×((LVID;d+LVPW;d+IVS;d)3−LVID;d3). Relative wall thickness (RWT) was calculated as 2×LVPW;d/LVID;d.21 Normal geometry of the heart was defined as the 95th percentile for both LV Mass and RWT of the NT group. E and A waves in left ventricular filling velocities were assessed via pulsed-wave Doppler in a parasternal long axis view. Echocardiographic analysis were performed by an operator blinded to treatment group.
# as §4
# [4] = test system: Dahl salt-sensitive (Dahl/SS) male rats; assay: Tail-cuff blood pressure measurement in hypertensive Dahl/SS rats; conditions: for DBP (diastolic blood pressure) / MAP (mean arterial pressure) / SBP (systolic blood pressure): HT Dahl/SS rats on high salt diet, at 6 weeks, mean ± SEM
# Experimental: as §1, §2, §3
# Measurement was carried out using the CODA non-invasive blood pressure acquisition system for rats (Kent Scientific Corporation). Animals were kept in restraint tubes and placed over a heating platform (preheated to 33 to 35° C.) and blood pressure measured by a tail-cuff system. Each recording session consisted of 25 acclimation cycles (not used in the analysis), followed by 20 inflation and deflation cycles (the occlusion cuff is inflated to 250 mm Hg and deflated over 20 s). Rats were trained for at least 5 consecutive days before blood pressure measurements were recorded.
# as §4
# [5] = test system: Dahl salt-sensitive (Dahl/SS) male rats; assay: Renal function and structure in hypertensive Dahl/SS rats (data not shown); conditions: HT Dahl/SS rats
# [6] = 50 or 100 ng/kg/day s.c. (pooled) for 28 days
substance,measurement,setting,value
"proANP31-67: Human proANP31-67, linear peptide fragment of proANP consisting of SEQ ID NO: 1; also known as vessel dilator, VSDL (EVVPPQVLSEPNEEAGAALSPLPEVPPWTGEVSPAQR; listed as Homo sapiens)",increase of interstitial LV fibrosis compared to NT rats,[1],14%
same,increase of perivascular LV fibrosis compared to NT rats,[1],35%
same,HW (heart weight),[2]; 25 ng/kg/day s.c.,1304 ± 41.4 mg
same,HW/BW,[2]; 25 ng/kg/day s.c.,3.68 ± 0.07
same,HW (heart weight),[2]; [6],1365 ± 30.1 mg
same,HW/BW,[2]; [6],3.97 ± 0.1 mg/g
same,increase in HW/BW relative to NT rats,"[2]; HT Dahl/SS rats, 25 ng/kg/day s.c., FIG. 5B",no increase
same,percentage increase in heart weight/body weight compared to NT,"[2]; HT Dahl/SS rats, 50 or 100 ng/kg/day s.c. (pooled), FIG. 1B",less than 5%
same,E/A (ratio E wave to A wave),[3]; 25 ng/kg/day s.c.,1.47 ± 0.08
same,EF (ejection fraction),[3]; 25 ng/kg/day s.c.,79.6 ± 1.6%
same,FS (fractional shortening),[3]; 25 ng/kg/day s.c.,49.89 ± 1.7%
same,"IVS; d (inter-ventricular septum, diastole)",[3]; 25 ng/kg/day s.c.,1.67 ± 0.03 mm
same,"IVS; s (inter-ventricular septum, systole)",[3]; 25 ng/kg/day s.c.,3.12 ± 0.10 mm
same,LA (left atrium diameter),[3]; 25 ng/kg/day s.c.,4.13 ± 0.17 mm
same,LV Mass (left ventricular mass),[3]; 25 ng/kg/day s.c.,872.5 ± 22.5 mg
same,"LV Vol; d (left ventricular volume, diastole)",[3]; 25 ng/kg/day s.c.,288.5 ± 15.4 µL
same,"LV Vol; s (left ventricular volume, systole)",[3]; 25 ng/kg/day s.c.,59.44 ± 6.2 µL
same,"LVPW; d (left ventricular posterior wall, diastole)",[3]; 25 ng/kg/day s.c.,1.67 ± 0.04 mm
same,"LVPW; s (left ventricular posterior wall, systole)",[3]; 25 ng/kg/day s.c.,2.81 ± 0.08 mm
same,RWT (relative wall thickness),[3]; 25 ng/kg/day s.c.,0.46 ± 0.02
same,E/A (ratio E wave to A wave),[3]; [6],1.6 ± 0.1
same,EF (ejection fraction),[3]; [6],78.2 ± 1.9%
same,FS (fractional shortening),[3]; [6],48.7 ± 1.8%
same,"IVS; d (inter-ventricular septum, diastole)",[3]; [6],1.7 ± 0.0 mm
same,"IVS; s (inter-ventricular septum, systole)",[3]; [6],3.1 ± 0.0 mm
same,LA (left atrium diameter),[3]; [6],4.2 ± 0.1 mm
same,LV Mass (left ventricular mass),[3]; [6],891.7 ± 12.9 mg
same,"LV Vol; d (left ventricular volume, diastole)",[3]; [6],265.1 ± 12.4 µL
same,"LV Vol; s (left ventricular volume, systole)",[3]; [6],58.0 ± 6.3 µL
same,"LVPW; d (left ventricular posterior wall, diastole)",[3]; [6],1.8 ± 0.0
same,"LVPW; s (left ventricular posterior wall, systole)",[3]; [6],2.9 ± 0.1
same,RWT (relative wall thickness),[3]; [6],0.52 ± 0.02
same,diastolic function as defined by E/A ratio,"[3]; HT Dahl/SS rats, 25 ng/kg/day s.c., FIG. 5C",preserved diastolic function
same,change in LA diameter,"[3]; HT Dahl/SS rats, 25 ng/kg/day s.c., FIG. 5D",much smaller change in LA diameter than the untreated HT group
same,proportion of treated HT rats displaying normal cardiac geometry,"[3]; HT Dahl/SS rats, 25 ng/kg/day s.c., FIG. 5E",all
same,"E/A ratio, relative fold change to NT controls","[3]; HT Dahl/SS rats, 50 or 100 ng/kg/day s.c. (pooled), FIG. 1C",preserved
same,left atrium diameter larger compared to NT rats,"[3]; HT Dahl/SS rats, 50 or 100 ng/kg/day s.c. (pooled), FIG. 1D",about 10%
same,proportion of treated HT rats showing normal geometry (LV mass and RWT),"[3]; HT Dahl/SS rats, 50 or 100 ng/kg/day s.c. (pooled), FIG. 1E",approximately 70%
same,DBP (diastolic blood pressure),[4]; 25 ng/kg/day s.c.,120.1 ± 4.7 mmHg
same,MAP (mean arterial pressure),[4]; 25 ng/kg/day s.c.,138.6 ± 4.1 mmHg
same,SBP (systolic blood pressure),[4]; 25 ng/kg/day s.c.,176.5 ± 3.4 mmHg
same,DBP (diastolic blood pressure),[4]; [6],128.2 ± 2.3 mmHg
same,MAP (mean arterial pressure),[4]; [6],144.9 ± 2.3 mmHg
same,SBP (systolic blood pressure),[4]; [6],179.3 ± 2.4 mmHg
same,effect on systolic blood pressure,"[4]; HT Dahl/SS rats, 25 ng/kg/day s.c., FIG. 5A",no effect
same,effect on elevated systolic blood pressure,"[4]; HT Dahl/SS rats, 50 or 100 ng/kg/day s.c. (pooled), FIG. 1A",not lowered
same,protective effects on renal function,[5]; 25 ng/kg/day s.c.,not to display the protective effects on renal function
same,effects on renal function and structure,"[5]; 50 or 100 ng/kg/day s.c., data not shown",protective effects on renal function and structure

# From patent US20230173029A1, “TREATMENT OF CARDIAC REMODELLING” (UNIVERSITETET I OSLO, priority 2020, published 2023)
